Experimental data: publication PMC8262977, “A Dual-Specificity Inhibitor Targets Polyphosphate Kinase 1 and 2 Enzymes To Attenuate Virulence of Pseudomonas aeruginosa” (mBio, 2021)

Tests used:
[1] = biological target: T1, P. aeruginosa PPK2B (Pseudomonas aeruginosa, UniProt Q9I154); test: PPK2B polyP synthesis from ATP, toluidine blue detection; format: biochemical; conditions: polyP synthesis from ATP; 275 nM enzyme; read-out: IC50 PPK2B
T1 construct: MBP (N, cleaved yes); His tag (N, cleaved yes); made in house; host or cells: E. coli BL21(DE3)
Protocol: (§1) Compounds were synthesized as outlined in Text S1. Compounds were dissolved in DMSO to make 10 mM stocks and added to a 200 μM final concentration for initial screening. The screen for PPK1 inhibitors was conducted by measuring polyP synthesis activity as described previously ([12]), with the exception of the polyP detection method (see Text S1). The reaction mix contained 50 mM HEPES-KOH, pH 7.5, 40 mM (NH4)2SO4, 4 mM MgSO4, 60 mM creatine phosphate, 0.0625 mg/ml creatine kinase (Sigma; from rabbit muscle), 5 mM ATP, and 275 nM PPK1 (added last). One-hundred-microliter reaction mixtures were incubated at 37°C for 30 min, after which time 50-μl aliquots were withdrawn and added to 1,000 μl of 6-mg/liter toluidine blue dissolved in 40 mM acetic acid to quench the reaction and quantify polyP ([27]). The A630/530 nm ratio was then recorded, and the values obtained were corrected by subtracting the corresponding blanks (all ingredients except enzyme). The amount of polyP synthesized was calculated using a standard curve (Fig. S1A). Any compounds showing 50% or greater reduction in activity relative to the DMSO control were subjected to further IC50 analysis.
(§2) All IC50 and kinetic assay mixtures contained equimolar amounts (275 nM) of PPK to ensure valid comparison between different enzymes. PolyP synthesis activity (for PPK1 and PPK2B) was assayed using the reaction buffer and conditions described above. ATP concentration was varied as indicated for kinetic experiments. Curves were fit using GraphPad Prism V9.

[2] = mice, 5 to 10 mg/kg of body weight daily for up to 8 weeks; cited from earlier work
[3] = test system: P. aeruginosa PA14; test: Pyocyanin quantification (absorbance at 520 nm); format: cell-based, Pseudomonas aeruginosa
Protocol: (§3) Fifty-milliliter P. aeruginosa cultures in 2.5% (wt/vol) LB (Miller; Bioshop) were grown to stationary phase in 125-ml Erlenmeyer flasks with 180-rpm shaking at 37°C for 18 h. Cultures were centrifuged at 18,000 rpm for 30 min to clarify the supernatant, which was then filter sterilized. Pyoverdine was quantified spectrophotometrically at 403 nm as described previously ([55]). Pyocyanin was extracted via chloroform and treated with HCl to yield a red product that was quantified at 520 nm ([55]). To account for any colorimetric interference by inhibitors, cell-free blank readings were subtracted from each sample.

[4] = test system: C. elegans; test: Toxicity toward C. elegans (OP50 + gallein curves); format: in vivo, Caenorhabditis elegans; conditions: 100 μM
Protocol: We tested both liquid killing (LK) and solid-phase slow killing (SK) models of infection, as these two assays are reliant upon distinct mechanisms of P. aeruginosa pathogenesis ([34], [35]). […]. Wild-type N2 C. elegans and the glp-4 conditionally sterile mutant strain were obtained from the Caenorhabditis Genetics Center. Liquid killing assays were conducted using glp-4 mutant worms as described previously ([35]), with the exception of survival being scored manually under a Zeiss light microscope instead of via Sytox Orange staining. Nematodes were scored as dead when they no longer moved when tapped. Solid killing was conducted using glp-4 as described previously ([34]), with the indicated concentration of inhibitor impregnated into the SK agar. Bacterial CFU accumulation in WT N2 worms was quantified as described previously ([56]). Briefly, age-synchronized embryos were spotted onto bacterium-seeded nematode growth medium (NGM) agar plates impregnated with inhibitor or DMSO. Embryos were incubated at 25°C for 3 days, after which point adult worms were harvested, washed, lysed, and enumerated for CFU.

[5] = biological target: T2, P. aeruginosa PPK1 (Pseudomonas aeruginosa, UniProt P0DP44); test: PPK1 polyP synthesis from ATP, toluidine blue detection; format: biochemical
T2 construct: His tag (cleaved yes); made in house
Protocol: as §1, with “The reaction mix contained 50 mM HEPES-KOH, pH 7.5, 40 mM (NH4)2SO4, 4 mM MgSO4, 60 mM creatine phosphate, 0.0625 mg/ml creatine kinase (Sigma; from rabbit muscle), 5 mM ATP, and 275 nM PPK1 (added last).” left out
as §2

[6] = test system: P. aeruginosa; test: microbe, parasite or virus in culture; format: cell-based, Pseudomonas aeruginosa; conditions: 100 μM gallein, LK medium
[7] = test system: P. aeruginosa; test: C. elegans solid-phase slow killing (SK) infection assay; format: in vivo, Caenorhabditis elegans; conditions: 100 μM gallein
Protocol: Wild-type N2 C. elegans and the glp-4 conditionally sterile mutant strain were obtained from the Caenorhabditis Genetics Center. Liquid killing assays were conducted using glp-4 mutant worms as described previously ([35]), with the exception of survival being scored manually under a Zeiss light microscope instead of via Sytox Orange staining. Nematodes were scored as dead when they no longer moved when tapped. Solid killing was conducted using glp-4 as described previously ([34]), with the indicated concentration of inhibitor impregnated into the SK agar. Bacterial CFU accumulation in WT N2 worms was quantified as described previously ([56]). Briefly, age-synchronized embryos were spotted onto bacterium-seeded nematode growth medium (NGM) agar plates impregnated with inhibitor or DMSO. Embryos were incubated at 25°C for 3 days, after which point adult worms were harvested, washed, lysed, and enumerated for CFU.

[8] = test system: P. aeruginosa PA14; test: Pyoverdine quantification (absorbance at 403 nm); format: cell-based, Pseudomonas aeruginosa
Protocol: as §3

[9] = WT: DMSO control vs 100 µM gallein

T2 sequence (P0DP44 whole entry): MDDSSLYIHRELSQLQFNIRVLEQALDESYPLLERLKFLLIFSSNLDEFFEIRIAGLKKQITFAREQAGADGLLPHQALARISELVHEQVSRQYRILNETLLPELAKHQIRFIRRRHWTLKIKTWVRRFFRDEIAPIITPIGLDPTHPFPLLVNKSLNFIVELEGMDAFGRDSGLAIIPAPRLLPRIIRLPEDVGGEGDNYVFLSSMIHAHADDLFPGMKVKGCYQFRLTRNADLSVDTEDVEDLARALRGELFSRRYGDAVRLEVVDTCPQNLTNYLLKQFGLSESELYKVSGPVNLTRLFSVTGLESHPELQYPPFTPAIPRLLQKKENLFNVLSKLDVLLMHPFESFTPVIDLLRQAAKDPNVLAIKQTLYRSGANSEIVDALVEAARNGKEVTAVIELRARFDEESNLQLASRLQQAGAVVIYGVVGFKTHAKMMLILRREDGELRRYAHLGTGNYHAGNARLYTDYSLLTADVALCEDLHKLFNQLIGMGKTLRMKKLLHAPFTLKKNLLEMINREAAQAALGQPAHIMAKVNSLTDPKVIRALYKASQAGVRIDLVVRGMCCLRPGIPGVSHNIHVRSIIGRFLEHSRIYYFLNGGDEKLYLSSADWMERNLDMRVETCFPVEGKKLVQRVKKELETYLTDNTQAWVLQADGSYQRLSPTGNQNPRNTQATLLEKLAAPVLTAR
T1 sequence (Q9I154 whole entry): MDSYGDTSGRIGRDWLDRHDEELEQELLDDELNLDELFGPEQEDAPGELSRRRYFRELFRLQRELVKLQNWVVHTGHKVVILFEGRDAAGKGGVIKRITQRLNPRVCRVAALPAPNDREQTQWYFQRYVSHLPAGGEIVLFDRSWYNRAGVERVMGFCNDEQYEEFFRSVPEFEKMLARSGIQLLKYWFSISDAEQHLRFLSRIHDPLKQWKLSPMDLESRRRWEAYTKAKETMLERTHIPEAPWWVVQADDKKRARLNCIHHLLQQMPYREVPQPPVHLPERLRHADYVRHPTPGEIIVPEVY

Structure (SMILES): O=C1OC2(c3ccccc31)c1ccc(O)c(O)c1Oc1c2ccc(O)c1O [RT4 (gallein), gallein]
- IC50 [1]: 20 ± 2 µM
- adverse effects [2]: no adverse effects
- pyocyanin production ([3]; WT, Δppk1 and Δppk2 strains): reproduced the marked pyoverdine and pyocyanin defects observed in the ΔpolyP strain
- Pyocyanin, Mean Diff. [3, 9]: 0.2097
- pyocyanin production ([3]; ΔpolyP strain): no significant decrease of either toxin
- Pyocyanin, Mean Diff. ([3]; ∆ppk1, 2a, 2b, 2c: DMSO control vs 100 µM gallein): 0.07567
- Pyocyanin, Mean Diff. ([3]; ∆ppk1: DMSO control vs 100 µM gallein): 0.08867
- Pyocyanin, Mean Diff. ([3]; ∆ppk2a, 2b, 2c: DMSO control vs 100 µM gallein): 0.2097
- toxicity toward C. elegans [4]: no gallein toxicity toward C. elegans was observed
- PPK1 activity in the absence of ATP regeneration ([5]; no creatine kinase/creatine phosphate, low-micromolar gallein): reduced both PPK1 activity rate and equilibrium polyP levels
- IC50 ([5]; polyP synthesis from ATP, 275 nM enzyme): 17 ± 1 µM
- effect on the MIC of tetracycline or ciprofloxacin [6]: did not alter the MIC
- C. elegans survival [7]: significantly improved survival rates
- pyoverdine production ([8]; WT, Δppk1 and Δppk2 strains): reproduced the marked pyoverdine and pyocyanin defects observed in the ΔpolyP strain
- Pyoverdine, Mean Diff. [8, 9]: 38.33
- pyoverdine production ([8]; ΔpolyP strain): no significant decrease of either toxin
- Pyoverdine, Mean Diff. ([8]; Δppk1, 2a, 2b, 2c: DMSO control vs 100 µM gallein): -3.233
- Pyoverdine, Mean Diff. ([8]; Δppk1: DMSO control vs 100 µM gallein): 17.13
- Pyoverdine, Mean Diff. ([8]; Δppk2a, 2b, 2c: DMSO control vs 100 µM gallein): 45.33
